Data from article PMC7876453, “Targeting Indoleamine 2,3-Dioxygenase in Cancer Models Using the Novel Small Molecule Inhibitor NTRC 3883-0” (Frontiers in Immunology, 2021).

What was measured:
[1] = molecular target: T1, human IDO1 (Homo sapiens, UniProt P14902); assay: human IDO1 biochemical assay (NFK GreenScreen); details: human IDO1 biochemical assay
T1 construct: Full-length recombinant human and mouse IDO1 were expressed in Escherichia coli with a hexahistidine tag at the N-terminus; hexahistidine (N); made in house; host or cells: Escherichia coli

[2] = molecular target: T2, hWB + IFNγ (hIDO1) (Homo sapiens, UniProt P14902); assay: human whole blood assay, Trp-catabolizing activity after IFNγ stimulation; format: cell-based; details: human whole blood from healthy donors
T2 construct: from tissue; host or cells: heparinized human whole blood from healthy donors, IFNγ-stimulated

[3] = human pharmacokinetics predicted by allometric scaling; details: predicted parameters, assuming 100% bioavailability
Description: Pharmacokinetic properties of NTRC 3883-0 were determined in plasma following single oral (p.o.) and i.v. administration to male CD-1 mice (n = 6 per treatment group with three mice sampled per time point), Wistar rats (n = 3), cynomolgus monkey (n = 1) and Beagle dogs (n = 3). Formulations were prepared in DMSO, Kolliphor® EL, 5% D-mannitol in Elix water at a volume ratio of 1:1:8 for i.v. administration, and in 0.5% gelatin, 5% D-mannitol in Elix water for p.o. administration. Plasma samples were collected at eight to eleven time points up to 24 h after administration. Pharmacokinetic properties and required dosing in humans were predicted by allometric scaling by Karin Jorga Life Science Consulting (Basel, Switzerland) ( Figure S2 and Table S2 ).
Table S2. Pharmacokinetic parameters of NTRC 3883-0 observed in mouse, rat, monkey and dog, and predicted for humans using allometric scaling. Data in bold are measured, while data in italics are calculated or predicted (for humans). The clearance (Cl) and volume of distribution at steady state (Vss) in humans are predicted based on extrapolation of the parameters in the four species as shown in Supplementary Figure S2. […] The half-life (t1/2) in humans was predicted as Vss/Cl. […] ND = not determined.

[4] = system: dog whole blood; assay: dog whole blood assay; format: cell-based; details: Canis lupus familiaris
[5] = molecular target: HEK-hTDO (Homo sapiens, UniProt P48775); assay: cell-based assay, Trp-catabolizing activity in HEK-hTDO cells
[6] = molecular target: GL-261-mTDO (Mus musculus, UniProt P48776); assay: cell-based assay, Trp-catabolizing activity in GL-261-mTDO cells; details: read-out: inhibition GL-261-mTDO
[7] = molecular target: B16F10-mIDO1 (Mus musculus, UniProt P28776); assay: cell-based assay, Trp-catabolizing activity in B16F10-mIDO1 cells
B16F10-mIDO1, sequence (P28776 whole entry): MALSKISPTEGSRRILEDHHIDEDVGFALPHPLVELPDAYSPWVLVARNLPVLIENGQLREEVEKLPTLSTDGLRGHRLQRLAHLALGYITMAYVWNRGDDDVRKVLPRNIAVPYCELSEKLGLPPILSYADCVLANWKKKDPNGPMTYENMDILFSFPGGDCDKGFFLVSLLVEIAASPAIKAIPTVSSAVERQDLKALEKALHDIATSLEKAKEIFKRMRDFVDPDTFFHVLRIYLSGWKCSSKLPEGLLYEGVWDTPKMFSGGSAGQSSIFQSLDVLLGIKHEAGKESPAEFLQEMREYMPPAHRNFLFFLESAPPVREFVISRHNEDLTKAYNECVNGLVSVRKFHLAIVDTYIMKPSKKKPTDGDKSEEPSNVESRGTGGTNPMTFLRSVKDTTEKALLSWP

HEK-hTDO, sequence (P48775 whole entry): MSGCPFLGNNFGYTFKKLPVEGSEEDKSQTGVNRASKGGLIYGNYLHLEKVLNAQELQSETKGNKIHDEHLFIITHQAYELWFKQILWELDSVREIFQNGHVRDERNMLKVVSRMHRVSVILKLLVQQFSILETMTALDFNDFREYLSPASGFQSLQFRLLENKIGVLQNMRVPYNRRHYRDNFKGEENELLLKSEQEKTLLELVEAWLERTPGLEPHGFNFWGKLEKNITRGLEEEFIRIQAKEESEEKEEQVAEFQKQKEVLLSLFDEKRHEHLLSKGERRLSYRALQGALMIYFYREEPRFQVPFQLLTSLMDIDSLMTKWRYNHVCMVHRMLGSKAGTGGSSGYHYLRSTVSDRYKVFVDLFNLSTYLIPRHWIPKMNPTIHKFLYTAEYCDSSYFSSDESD
GL-261-mTDO, sequence (P48776 whole entry): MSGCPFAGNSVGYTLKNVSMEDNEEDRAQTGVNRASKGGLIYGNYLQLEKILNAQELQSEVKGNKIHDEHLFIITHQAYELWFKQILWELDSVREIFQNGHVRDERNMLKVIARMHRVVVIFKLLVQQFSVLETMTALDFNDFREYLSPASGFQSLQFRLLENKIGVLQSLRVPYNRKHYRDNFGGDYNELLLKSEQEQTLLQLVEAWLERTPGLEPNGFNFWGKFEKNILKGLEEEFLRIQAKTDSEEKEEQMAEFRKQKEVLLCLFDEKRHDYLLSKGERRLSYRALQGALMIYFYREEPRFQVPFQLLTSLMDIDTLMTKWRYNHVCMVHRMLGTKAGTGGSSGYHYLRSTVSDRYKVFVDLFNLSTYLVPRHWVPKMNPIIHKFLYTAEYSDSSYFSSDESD
T1 sequence (P14902 whole entry): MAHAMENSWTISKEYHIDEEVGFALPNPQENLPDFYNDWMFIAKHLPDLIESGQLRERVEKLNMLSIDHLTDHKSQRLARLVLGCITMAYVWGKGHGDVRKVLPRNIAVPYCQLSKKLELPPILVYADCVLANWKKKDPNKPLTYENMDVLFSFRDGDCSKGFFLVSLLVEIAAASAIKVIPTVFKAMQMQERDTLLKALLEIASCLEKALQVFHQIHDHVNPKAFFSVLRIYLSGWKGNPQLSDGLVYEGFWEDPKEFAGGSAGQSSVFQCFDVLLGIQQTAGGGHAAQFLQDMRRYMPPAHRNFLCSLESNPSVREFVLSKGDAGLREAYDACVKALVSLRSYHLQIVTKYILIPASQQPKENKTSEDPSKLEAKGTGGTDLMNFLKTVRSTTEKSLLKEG
T2 sequence (P14902 whole entry): as above

## O=C1CN(C(=O)c2c(F)cccc2F)[C@H](c2cccc(Br)c2)N1O [NTRC 3883-0]
[1]
  IC50: 123 nM
[2]
  IC50: 378 nM
[3]
  minimum dose required to reach a target concentration of 1 μM on average during the dosing interval: 1725 mg per day
[4]
  IC90: 1000 nM
[5]
  effect on Trp-catabolizing activity in HEK-hTDO cells (in words): no effect
[5]; read-out: inhibition HEK-hTDO
  inhibition at 31.6 µM: < 20%
[6]
  inhibition at 31.6 µM: < 20%
[7]
  IC50: 18 nM
  times more potent compared to epacadostat in B16F10-mIDO1 assay: 5 times
